Structures are written as SMILES.

For orientation: IC50 means the concentration at which inhibition is half-maximal.

The target in this experiment is T1, CETP (Homo sapiens, UniProt P11597).
T1 construct: tissue New Drug Development Research Center, Inc; host or cells: human EDTA plasma from healthy men
T1 sequence (P11597 18-493): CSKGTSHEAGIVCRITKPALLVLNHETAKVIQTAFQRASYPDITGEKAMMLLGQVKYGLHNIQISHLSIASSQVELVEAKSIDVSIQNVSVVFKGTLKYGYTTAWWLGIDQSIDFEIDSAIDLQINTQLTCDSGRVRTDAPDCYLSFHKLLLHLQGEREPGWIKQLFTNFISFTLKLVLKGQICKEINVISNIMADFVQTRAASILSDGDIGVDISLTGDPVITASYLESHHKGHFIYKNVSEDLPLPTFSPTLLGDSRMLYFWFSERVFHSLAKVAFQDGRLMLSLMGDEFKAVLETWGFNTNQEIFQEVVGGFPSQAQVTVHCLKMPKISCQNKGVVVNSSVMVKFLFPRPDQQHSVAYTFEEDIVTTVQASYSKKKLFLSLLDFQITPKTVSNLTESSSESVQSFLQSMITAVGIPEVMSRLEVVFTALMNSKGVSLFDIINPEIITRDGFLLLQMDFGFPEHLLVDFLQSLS
Kind of experiment: In vitro CETP activity assay in human plasma. The class given is biochemical. Particulars: CETP inhibition; Table 1 does not name the assay, it follows the human plasma assay; read-out: IC50 (nM), Inhibitory Activity of Compounds. How it is done: The cDNA of human pro-apoAI (NCBI accession number: NM_000039) is cloned from human liver Quick-Clone™ cDNA (Clontech, CA) and inserted to a pET28a vector (Novagen, Germany) for bacterial expression. Expressed protein as a fusion protein with 6×His-tag at N-terminus in BL-21 Gold (DE3) (Strategene, CA) is purified using HiTrap Chelating (GE Healthcare, CT).
Pro-apoAI containing microemulsion as a donor particle is prepared following previous reports (J. Biol. Chem., 280:14918-22). Glyceryl trioleate (62.5 ng, Sigma, Mo.), 3-sn-phosphatidylcholine (583 ng, Wako Pure Chemical Industries, Japan), and cholesteryl BODIPY® FL C12 (250 ng, Invitrogen, CA) are dissolved in 1 mL of chloroform. The solution is evaporated, then residual solvent is removed in vacuum for more than 1 hr. The dried lipid mixture is dissolved in 500 μL of the assay buffer (50 mM Tris-HCl (pH7.4) containing 150 mM NaCl and 2 mM EDTA) and sonicated at 50° C. with a microtip (MICROSON™ ULTRASONIC CELL DISRUPTOR, Misonix, Farmingdale, N.Y.) at output power 006 for 2 min. After sonication, the solution is cooled to 40° C., added to 100 μg of human pro-apoAI, and sonicated at output power 004 for 5 min at 40° C. The solution, BODIPY-CE microemulsion as a donor molecule is stored at 4° C. after filtration through a 0.45 μm PVDF filter.
Human EDTA plasma samples from healthy men are purchased from New Drug Development Research Center, Inc. Donor solution is prepared by a dilution of donor microemulsion with assay buffer. Human plasma (50 μL), assay buffer (35 μL) and test compound dissolved in dimethylsulfoxide (1 μL) are added to each well of 96 well half area black flat bottom plate. The reaction is started by the addition of donor solution (14 μL) into each well. Fluorescence intensities are measured every 30 min at 37° C. with excitation wave length of 485 nm and emission wavelength of 535 nm. The CETP activity (FI/min) is defined as the changes of fluorescence intensity from 30 to 90 min.
On to `CC[C@@H]1C[C@H](N(Cc2cc(C(F)(F)F)cc(C(F)(F)F)c2)c2ncc(-c3cnn(C)c3)cn2)C[C@H](CC)N1C(=O)[C@H]1CC[C@H](CC(=O)O)CC1` [Example 1-2], for which the IC50 was found to be 142 nM.

On to `CC[C@@H]1C[C@H](N(Cc2cc(C(F)(F)F)cc(C(F)(F)F)c2)c2ncc(-c3cnn(C)c3)cn2)C[C@H](CC)N1C(=O)OCCCCC(=O)O` [Example 1-5], for which the IC50 was 135 nM.

As to `CC[C@@H]1C[C@H](N(Cc2cc(C(F)(F)F)cc(C(F)(F)F)c2)c2ncc(-c3cnn(C)c3)cn2)C[C@H](CC)N1C(=O)O[C@H]1CC[C@H](C(=O)O)CC1` [Example 1-8], the IC50 stood at 69 nM.

With `CC[C@@H]1C[C@H](N(Cc2cc(C(F)(F)F)cc(C(F)(F)F)c2)c2ncc(-c3cnn(C)c3)cn2)C[C@H](CC)N1C(=O)OCC(C)(C)CCC(=O)O` [Example 1-11], the IC50 turned out to be 63 nM.

For the compound `CC[C@@H]1C[C@H](N(Cc2cc(C(F)(F)F)cc(C(F)(F)F)c2)c2ncc(-c3cnn(C)c3)cn2)C[C@H](CC)N1C(=O)O[C@H]1C[C@H](C(=O)O)C1` [Example 1-17], the IC50 stood at 86 nM.

Take `C[C@@H]1C[C@H](N(Cc2cc(C(F)(F)F)cc(C(F)(F)F)c2)c2ncc(-c3cnn(C)c3)cn2)C[C@H](C)N1C(=O)O[C@H]1CC[C@H](C(=O)O)CC1` [Example 1-19]: the IC50 turned out to be 98 nM.

As to `CC[C@@H]1C[C@H](N(Cc2cc(Cl)cc(Cl)c2)c2ncc(-c3cnn(C)c3)cn2)C[C@H](CC)N1C(=O)O[C@H]1CC[C@H](C(=O)O)CC1` [Example 1-20], the IC50 was determined as 91 nM.

With `CC[C@@H]1C[C@H](N(Cc2cc(F)cc(C(F)(F)F)c2)c2ncc(-c3cnn(C)c3)cn2)C[C@H](CC)N1C(=O)O[C@H]1CC[C@H](C(=O)O)CC1` [Example 1-22], the 50% inhibitory concentration (IC50) is 99 nM.

With `CC[C@@H]1C[C@H](N(Cc2cc(C(F)(F)F)cc(C(F)(F)F)c2)c2ncc(-c3cnn(C)c3)cn2)C[C@H](CC)N1C(=O)O[C@H]1C[C@H](C(C)(C)C(=O)O)C1` [Example 1-27], the IC50 was found to be 152 nM.

As for `CC[C@@H]1C[C@H](N(Cc2cc(C(F)(F)F)cc(C(F)(F)F)c2)c2ncc(-c3cnn(C)c3)cn2)C[C@H](CC)N1C(=O)OCCCCC(N)=O` [Example 4, cis-4-{[3,5-bis(trifluoromethyl)benzyl]-[5-(1-methyl-1H-pyrazol-4-yl)-pyrimidin-2-yl]-amino}-2,6-diethyl-piperidine-1-carboxylic acid 4-carbamoyl-butyl ester], the IC50 was 68 nM.

Source of the values: US8193349B2, “4-benzylamino-1-carboxylacyl-piperidine derivatives as CETP inhibitors” (Novartis AG, priority 2007, dated 2012).
